Measurements from publication PMC4503722, “Novel Phenotypic Outcomes Identified for a Public Collection of Approved Drugs from a Publicly Accessible Panel of Assays” (PLoS ONE, 2015).
Where two headings read alike, the source gives them in different places.

Tests used:
HeLa cells = experiment: cells; type: cell-based; details: read-out: CellCycle G2/M
DLD-1 = experiment: cells; type: cell-based
hp70S6K1 (RPS6KB1) = target: T1, hp70S6K1 (RPS6KB1) (Homo sapiens, UniProt P23443); experiment: Cerep LANCE kinase assay hp70S6K1 (S1 assay 31); type: biochemical
T1 construct: purchased Cerep (LANCE kinase assay platform, contract assay)
T1 sequence (P23443 whole entry): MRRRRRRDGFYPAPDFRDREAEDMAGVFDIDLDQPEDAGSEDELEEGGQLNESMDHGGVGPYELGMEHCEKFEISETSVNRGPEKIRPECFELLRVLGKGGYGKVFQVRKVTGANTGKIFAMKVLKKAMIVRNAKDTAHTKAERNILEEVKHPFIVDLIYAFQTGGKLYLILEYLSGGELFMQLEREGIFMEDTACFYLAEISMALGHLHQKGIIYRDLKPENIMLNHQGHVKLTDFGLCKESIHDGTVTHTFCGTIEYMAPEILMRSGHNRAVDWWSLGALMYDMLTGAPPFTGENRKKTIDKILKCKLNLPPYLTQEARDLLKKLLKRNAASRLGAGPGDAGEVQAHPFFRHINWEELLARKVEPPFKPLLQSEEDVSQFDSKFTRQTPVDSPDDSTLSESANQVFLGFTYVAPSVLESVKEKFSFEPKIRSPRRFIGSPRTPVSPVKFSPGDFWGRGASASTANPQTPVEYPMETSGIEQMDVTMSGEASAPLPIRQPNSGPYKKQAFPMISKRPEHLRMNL

HCT116 = experiment: cells; type: cell-based
hJAK2 = target: T2, hJAK2 (Homo sapiens, UniProt O60674); experiment: Cerep LANCE kinase assay hJAK2 (S1 assay 33); type: biochemical
T2 construct: purchased Cerep (LANCE kinase assay platform, contract assay)
T2 sequence (O60674 whole entry): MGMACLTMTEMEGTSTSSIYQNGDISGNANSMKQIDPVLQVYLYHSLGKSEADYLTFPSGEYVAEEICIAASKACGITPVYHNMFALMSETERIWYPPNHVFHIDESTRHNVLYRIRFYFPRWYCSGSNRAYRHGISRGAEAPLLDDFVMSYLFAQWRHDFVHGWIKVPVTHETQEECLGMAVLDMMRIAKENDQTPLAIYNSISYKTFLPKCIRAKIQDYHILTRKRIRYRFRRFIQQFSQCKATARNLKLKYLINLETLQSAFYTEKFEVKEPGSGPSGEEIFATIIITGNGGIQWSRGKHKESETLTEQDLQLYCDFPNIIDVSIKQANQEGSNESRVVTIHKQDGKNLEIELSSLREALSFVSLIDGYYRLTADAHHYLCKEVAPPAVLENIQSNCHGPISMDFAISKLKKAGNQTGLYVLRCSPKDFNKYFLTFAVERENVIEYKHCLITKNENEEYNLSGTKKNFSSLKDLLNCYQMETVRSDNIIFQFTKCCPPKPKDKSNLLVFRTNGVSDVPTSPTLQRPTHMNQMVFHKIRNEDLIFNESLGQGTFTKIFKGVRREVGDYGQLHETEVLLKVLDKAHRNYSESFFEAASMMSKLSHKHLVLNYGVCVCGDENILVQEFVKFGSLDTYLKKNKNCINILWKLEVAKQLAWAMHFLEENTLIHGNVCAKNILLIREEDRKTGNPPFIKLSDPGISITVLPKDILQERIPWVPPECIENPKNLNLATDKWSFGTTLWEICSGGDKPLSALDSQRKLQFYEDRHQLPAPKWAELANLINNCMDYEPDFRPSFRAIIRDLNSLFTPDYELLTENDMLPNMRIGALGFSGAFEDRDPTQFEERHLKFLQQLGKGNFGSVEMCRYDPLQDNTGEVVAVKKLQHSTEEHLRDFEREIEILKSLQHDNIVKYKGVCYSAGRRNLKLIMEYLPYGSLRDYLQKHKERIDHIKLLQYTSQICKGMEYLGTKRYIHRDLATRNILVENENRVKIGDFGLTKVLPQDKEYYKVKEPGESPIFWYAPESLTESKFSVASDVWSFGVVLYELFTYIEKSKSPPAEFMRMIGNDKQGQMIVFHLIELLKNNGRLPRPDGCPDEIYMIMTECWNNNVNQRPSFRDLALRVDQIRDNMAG

hKDR = target: T3, hKDR (Homo sapiens, UniProt P35968); experiment: Cerep LANCE kinase assay hKDR (S1 assay 32); type: biochemical
T3 construct: purchased Cerep (LANCE kinase assay platform, contract assay)
T3 sequence (P35968 20-1356): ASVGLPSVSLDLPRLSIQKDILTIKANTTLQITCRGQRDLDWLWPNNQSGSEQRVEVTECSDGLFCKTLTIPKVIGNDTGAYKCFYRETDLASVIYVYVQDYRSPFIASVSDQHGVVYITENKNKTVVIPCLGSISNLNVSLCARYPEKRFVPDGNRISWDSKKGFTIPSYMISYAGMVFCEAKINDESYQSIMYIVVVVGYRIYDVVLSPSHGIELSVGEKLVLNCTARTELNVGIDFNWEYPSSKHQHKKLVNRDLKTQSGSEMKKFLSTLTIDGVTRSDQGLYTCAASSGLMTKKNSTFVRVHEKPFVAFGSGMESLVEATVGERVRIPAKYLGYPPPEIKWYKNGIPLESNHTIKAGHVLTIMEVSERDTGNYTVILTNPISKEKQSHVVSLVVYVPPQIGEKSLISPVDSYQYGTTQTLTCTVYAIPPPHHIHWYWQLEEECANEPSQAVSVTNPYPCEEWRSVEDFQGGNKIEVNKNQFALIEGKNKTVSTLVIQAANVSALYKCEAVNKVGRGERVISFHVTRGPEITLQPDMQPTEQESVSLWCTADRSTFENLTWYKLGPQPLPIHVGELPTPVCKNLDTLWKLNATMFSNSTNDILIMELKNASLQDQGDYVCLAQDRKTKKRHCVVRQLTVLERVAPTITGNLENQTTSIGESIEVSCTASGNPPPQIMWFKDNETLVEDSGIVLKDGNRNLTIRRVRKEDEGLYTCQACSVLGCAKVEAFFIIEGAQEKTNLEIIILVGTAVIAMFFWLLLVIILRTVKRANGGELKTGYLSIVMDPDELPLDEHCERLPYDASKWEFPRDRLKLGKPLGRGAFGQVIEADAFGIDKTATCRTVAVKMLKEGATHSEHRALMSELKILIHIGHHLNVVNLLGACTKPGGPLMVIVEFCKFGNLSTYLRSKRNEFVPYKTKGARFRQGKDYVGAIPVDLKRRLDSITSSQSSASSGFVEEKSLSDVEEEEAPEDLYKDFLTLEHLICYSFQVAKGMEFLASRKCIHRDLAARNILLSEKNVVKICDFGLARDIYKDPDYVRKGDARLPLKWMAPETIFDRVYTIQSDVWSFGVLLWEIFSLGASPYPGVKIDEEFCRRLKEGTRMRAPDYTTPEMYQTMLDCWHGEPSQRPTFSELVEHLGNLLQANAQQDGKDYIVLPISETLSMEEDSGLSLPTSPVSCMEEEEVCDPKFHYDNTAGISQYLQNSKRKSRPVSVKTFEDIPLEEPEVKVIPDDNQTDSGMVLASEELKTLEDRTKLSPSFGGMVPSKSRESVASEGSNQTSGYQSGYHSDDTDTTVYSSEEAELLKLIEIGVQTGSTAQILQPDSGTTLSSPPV

[1] = system: endothelial tube formation in co-cultures of ECFCs and ADSCs treated with VEGF; experiment: cells; type: cell-based, human; details: read-out: Anti-Angiogenesis
SNU-C1 = experiment: cells; type: cell-based
SW480 = experiment: cells; type: cell-based
HT-29 = experiment: cells; type: cell-based
[2] = system: HCT116 cells treated with a GSK3β inhibitor; experiment: cells; type: cell-based
INS-1E cells = experiment: cells; type: cell-based, rat; details: read-out: Insulin Secretion
RKO = experiment: cells; type: cell-based
hGSK3b = target: T4, hGSK3b (Homo sapiens, UniProt P49841); experiment: Cerep LANCE kinase assay hGSK3b (S1 assay 34); type: biochemical
T4 construct: purchased Cerep (LANCE kinase assay platform, contract assay)
T4 sequence (P49841 whole entry): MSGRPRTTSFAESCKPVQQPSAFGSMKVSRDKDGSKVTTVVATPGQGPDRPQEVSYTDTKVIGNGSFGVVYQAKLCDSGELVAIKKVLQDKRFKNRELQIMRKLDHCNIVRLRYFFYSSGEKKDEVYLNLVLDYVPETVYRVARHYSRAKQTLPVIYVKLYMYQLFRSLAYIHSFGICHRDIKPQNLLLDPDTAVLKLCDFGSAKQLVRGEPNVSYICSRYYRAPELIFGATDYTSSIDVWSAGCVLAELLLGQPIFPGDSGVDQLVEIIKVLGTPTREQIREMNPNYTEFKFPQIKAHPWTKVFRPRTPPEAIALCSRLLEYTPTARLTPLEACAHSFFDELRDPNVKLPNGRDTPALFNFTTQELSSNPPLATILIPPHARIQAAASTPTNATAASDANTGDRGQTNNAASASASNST

hFLT3 = target: T5, hFLT3 (Homo sapiens, UniProt P36888); experiment: Cerep LANCE kinase assay hFLT3 (S1 assay 35); type: biochemical
T5 construct: purchased Cerep (LANCE kinase assay platform, contract assay)
T5 sequence (P36888 27-993): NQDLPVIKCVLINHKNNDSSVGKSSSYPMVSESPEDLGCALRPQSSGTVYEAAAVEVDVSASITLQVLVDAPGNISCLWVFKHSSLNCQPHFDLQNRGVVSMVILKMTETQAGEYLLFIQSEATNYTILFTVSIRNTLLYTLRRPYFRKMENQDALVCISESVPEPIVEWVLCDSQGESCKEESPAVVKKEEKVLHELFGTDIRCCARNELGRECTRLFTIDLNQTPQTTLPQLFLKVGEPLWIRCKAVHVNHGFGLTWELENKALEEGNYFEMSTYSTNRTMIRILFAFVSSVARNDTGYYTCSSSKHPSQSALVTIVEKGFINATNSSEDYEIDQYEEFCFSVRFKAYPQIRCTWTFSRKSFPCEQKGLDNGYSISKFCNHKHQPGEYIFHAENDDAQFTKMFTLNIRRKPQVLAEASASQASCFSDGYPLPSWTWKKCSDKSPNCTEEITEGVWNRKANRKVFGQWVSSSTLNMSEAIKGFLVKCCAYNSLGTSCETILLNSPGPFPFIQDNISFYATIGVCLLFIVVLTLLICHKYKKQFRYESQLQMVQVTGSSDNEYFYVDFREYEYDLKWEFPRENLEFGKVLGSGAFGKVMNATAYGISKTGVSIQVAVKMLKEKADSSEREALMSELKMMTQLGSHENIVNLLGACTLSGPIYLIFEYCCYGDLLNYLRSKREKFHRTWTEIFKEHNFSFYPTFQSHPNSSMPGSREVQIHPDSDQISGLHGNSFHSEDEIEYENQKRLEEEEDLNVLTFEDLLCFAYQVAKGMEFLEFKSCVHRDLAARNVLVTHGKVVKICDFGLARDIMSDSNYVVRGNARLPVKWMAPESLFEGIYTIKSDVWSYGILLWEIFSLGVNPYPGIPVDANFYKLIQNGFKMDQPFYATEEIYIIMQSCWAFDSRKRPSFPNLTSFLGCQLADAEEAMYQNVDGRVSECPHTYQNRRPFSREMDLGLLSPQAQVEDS

Colo320 = experiment: cells; type: cell-based
[3] = system: nuclear β-catenin in C2C12 cells; experiment: cells; type: cell-based
NCI-H716 cells = experiment: cells; type: cell-based, Human
[4] = Homo sapiens, DLD-1, read-out: Basal_Viability ATP DLD-1
[5] = Homo sapiens, HCT-116, read-out: Basal_Viability ATP HCT116
[6] = Homo sapiens, SNU-C1, read-out: Basal_Viability ATP SNU-C1
[7] = Homo sapiens, SW480, read-out: Basal_Viability ATP SW480
[8] = Homo sapiens, HT-29, read-out: Basal_Viability ATP HT-29
[9] = Homo sapiens, HCT-116, read-out: GSK3b inh pretreated_Viability ATP HCT116
[10] = Homo sapiens, RKO, read-out: Basal_Viability ATP RKO
[11] = Homo sapiens, COLO 320, read-out: Basal_Viability ATP Colo 320
[12] = Mus musculus, C2C12, read-out: Wnt Pathway
[13] = Homo sapiens, NCI-H716, read-out: GLP 1 Secretion

Row | SMILES | EC50 (HeLa cells; Homo sapiens, HeLa) [µM] | IC50 (DLD-1; [4]) [µM] | IC50 (HCT116; [5]) [µM] | IC50 ([1]; Homo sapiens) [µM] | IC50 (SNU-C1; [6]) [µM] | IC50 (SW480; [7]) [µM] | IC50 (HT-29; [8]) [µM] | IC50 [2, 9] [µM] | EC50 (INS-1E cells; Rattus norvegicus, INS-1E) [µM] | IC50 (RKO; [10]) [µM] | IC50 (Colo320; [11]) [µM] | EC50 [3, 12] [µM] | EC50 (NCI-H716 cells; [13]) [µM] | IC50 (hp70S6K1 (RPS6KB1); read-out: p70S6K1) [µM] | IC50 (hJAK2; read-out: JAK2) [µM] | IC50 (hKDR; read-out: KDR) [µM] | IC50 (hGSK3b; read-out: GSK3b) [µM] | IC50 (hFLT3; read-out: FLT3) [µM] | other results
1 | COc1ccc(-c2ccc3cc(C(=O)O)ccc3c2)cc1C12CC3CC(CC(C3)C1)C2 [Adapalene] | > 10 | 0.597 | 0.59 | 0.524 | 1.78 | 0.405 | 1.12 | 0.945 | > 10 | 0.444 | 0.787 | > 10 | > 10 |  |  |  |  |  | IC50 (hp70S6K1 (RPS6KB1); kinase assay, read-out: p70S6K1): > 20 µM; IC50 (hJAK2; kinase assay, read-out: JAK2): 5.57 µM; IC50 (hKDR; kinase assay, read-out: KDR): 7.1 µM; IC50 (hGSK3b; kinase assay, read-out: GSK3b): 7.25 µM; IC50 (hFLT3; kinase assay, read-out: FLT3): > 20 µM
2 | CCCSc1ccc2nc(NC(=O)OC)[nH]c2c1 [Albendazole] | 0.0612 | 0.108 | 0.0852 | 0.355 | > 20 | > 20 | > 20 | 0.154 | > 10 | 0.165 | 0.502 | 1.28 | > 10 | > 20 | > 20 | > 20 | > 20 | > 20 | 
3 | Cn1cnc([N+](=O)[O-])c1Sc1ncnc2nc[nH]c12 [Azathioprine] | > 10 | 0.364 | 0.207 | > 10 | > 20 | 9.44 | > 20 | 0.623 | > 10 | 2.66 | 10.3 | > 10 | > 10 |  |  |  |  |  | IC50 (hp70S6K1 (RPS6KB1)): > 20 µM; IC50 (hJAK2): > 20 µM; IC50 (hKDR): > 20 µM; IC50 (hGSK3b): > 20 µM; IC50 (hFLT3): > 20 µM
4 | CC(=O)Oc1ccc(C2(c3ccc(OC(C)=O)cc3)Oc3ccccc3NC2=O)cc1 [Bisoxatin diacetate] |  |  |  |  |  |  |  |  |  |  |  |  |  | > 20 | > 20 | > 20 | > 20 | > 20 | EC50 (HeLa cells): > 10 µM; IC50 (DLD-1; read-out: Basal_Viability ATP DLD-1): 19.7 µM; IC50 (HCT116; read-out: Basal_Viability ATP HCT116): 2.42 µM; IC50 [1]: 2.27 µM; IC50 (SNU-C1; read-out: Basal_Viability ATP SNU-C1): > 20 µM; IC50 (SW480; read-out: Basal_Viability ATP SW480): 9.19 µM; IC50 (HT-29; read-out: Basal_Viability ATP HT-29): > 20 µM; IC50 ([2]; read-out: GSK3b inh pretreated_Viability ATP HCT116): 3.26 µM; EC50 (INS-1E cells): > 20 µM; IC50 (RKO; read-out: Basal_Viability ATP RKO): 9.23 µM; IC50 (Colo320; read-out: Basal_Viability ATP Colo 320): > 20 µM; EC50 ([3]; read-out: Wnt Pathway): 14 µM; EC50 (NCI-H716 cells; read-out: GLP 1 Secretion): > 10 µM
5 | COc1ccc2cc1Oc1ccc(cc1)C[C@H]1c3c(cc4c(c3Oc3cc5c(cc3OC)CCN(C)[C@@H]5C2)OCO4)CCN1C [Cepharanthine] |  | 12.4 | 9.54 |  | 7.48 |  |  |  |  |  |  |  |  | > 20 | > 20 | > 20 | > 20 | > 20 | EC50 (HeLa cells; Homo sapiens, HeLa, IC50 / EC50, HeLa): > 10 µM; IC50 ([1]; Homo sapiens, IC50 / EC50, endothelial tube area, ADSC/ECFC co-culture): 3.02 µM; IC50 (SW480; Homo sapiens, SW480, basal, read-out: Basal_Viability ATP SW480): 0.308 µM; IC50 (HT-29; Homo sapiens, HT-29; read-out: Basal_Viability ATP HT-29): 1.36 µM; IC50 ([2]; Homo sapiens, HCT-116, GSK3b inhibitor pretreated, read-out: GSK3b inh pretreated_Viability ATP HCT116): 3.57 µM; EC50 (INS-1E cells; Rattus norvegicus, IC50 / EC50, INS-1E): > 10 µM; IC50 (RKO; Homo sapiens, RKO; read-out: Basal_Viability ATP RKO): 3.79 µM; IC50 (Colo320; Homo sapiens, COLO 320; read-out: Basal_Viability ATP Colo 320): 1.43 µM; EC50 ([3]; Mus musculus, C2C12, IC50 / EC50, C2C12 beta-catenin translocation, read-out: Wnt Pathway): 2.05 µM; EC50 (NCI-H716 cells; Homo sapiens, IC50 / EC50, NCI-H716, read-out: GLP 1 Secretion): > 10 µM
